Data: patent US20190119284A1, “ErbB Inhibitors and Uses Thereof” (The Regents of the University of California, priority 2016, published 2019)
Like-named read-outs stand apart in the source and are kept apart here.

Experiments:
FGFR1 = FGFR1 (Homo sapiens, UniProt P11362); experiment: Nanosyn in vitro kinase profiling: FGFR1; format: biochemical; details: for inhibition at 1 µM: compound at 1 μM
Experimental: (§1) This was confirmed by in vitro profiling against a panel of kinases, with compound 2 only showing potent inhibition of EGFR and Ab1 (Table 2).
(§2) In vitro Kinome Screen. In vitro profiling of compound 2 at 100 nM was conducted by Nanosyn.

MET = MET (Homo sapiens, UniProt P08581); experiment: Nanosyn in vitro kinase profiling: MET; format: biochemical; details: for inhibition at 1 µM: compound at 1 μM
Experimental: as §1, §2

FLT-3 = target: T1, FLT-3 (Homo sapiens, UniProt P36888); experiment: Nanosyn in vitro kinase profiling: FLT-3; format: biochemical; details: for inhibition at 1 µM: compound at 1 μM
T1 sequence (P36888 27-993): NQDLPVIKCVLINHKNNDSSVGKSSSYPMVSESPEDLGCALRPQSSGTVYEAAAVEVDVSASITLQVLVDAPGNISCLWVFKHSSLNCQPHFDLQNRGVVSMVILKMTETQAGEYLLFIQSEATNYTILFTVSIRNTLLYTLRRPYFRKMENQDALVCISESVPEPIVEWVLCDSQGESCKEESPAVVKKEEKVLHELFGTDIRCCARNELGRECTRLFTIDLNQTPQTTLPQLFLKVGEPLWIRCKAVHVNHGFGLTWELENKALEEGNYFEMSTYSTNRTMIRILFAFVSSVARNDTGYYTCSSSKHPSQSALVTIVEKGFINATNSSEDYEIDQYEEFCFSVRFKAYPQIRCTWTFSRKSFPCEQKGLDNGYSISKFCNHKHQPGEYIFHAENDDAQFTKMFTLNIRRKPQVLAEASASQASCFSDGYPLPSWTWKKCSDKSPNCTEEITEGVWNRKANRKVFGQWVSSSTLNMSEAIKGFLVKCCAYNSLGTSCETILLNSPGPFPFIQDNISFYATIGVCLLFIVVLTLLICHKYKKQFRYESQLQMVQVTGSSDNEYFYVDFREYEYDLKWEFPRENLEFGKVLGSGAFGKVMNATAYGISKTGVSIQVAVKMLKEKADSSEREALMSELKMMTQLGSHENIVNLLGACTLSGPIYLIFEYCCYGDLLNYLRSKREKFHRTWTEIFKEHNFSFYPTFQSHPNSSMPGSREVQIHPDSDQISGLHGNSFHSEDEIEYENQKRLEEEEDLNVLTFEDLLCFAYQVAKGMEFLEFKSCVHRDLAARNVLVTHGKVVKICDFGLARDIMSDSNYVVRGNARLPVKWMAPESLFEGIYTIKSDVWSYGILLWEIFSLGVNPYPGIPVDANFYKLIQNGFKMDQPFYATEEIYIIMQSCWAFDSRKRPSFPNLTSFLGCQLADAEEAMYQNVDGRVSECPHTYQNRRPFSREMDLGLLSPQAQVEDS
Experimental: as §1, §2

PYK2 = PYK2 (Homo sapiens, UniProt Q14289); experiment: Nanosyn in vitro kinase profiling: PYK2; format: biochemical; details: for inhibition at 1 µM: compound at 1 μM
Experimental: as §1, §2

EPH-A2 = EPH-A2 (Homo sapiens, UniProt P29317); experiment: Nanosyn in vitro kinase profiling: EPH-A2; format: biochemical; details: for inhibition at 1 µM: compound at 1 μM
Experimental: as §1, §2

MAPKAPK-2 = MAPKAPK-2 (Homo sapiens, UniProt P49137); experiment: Nanosyn in vitro kinase profiling: MAPKAPK-2; format: biochemical; details: for inhibition at 1 µM: compound at 1 μM
Experimental: as §1, §2

AURORA-A = target: T2, AURORA-A (Homo sapiens, UniProt O14965); experiment: Nanosyn in vitro kinase profiling: AURORA-A; format: biochemical; details: for inhibition at 1 µM: compound at 1 μM
T2 sequence (O14965 1-403): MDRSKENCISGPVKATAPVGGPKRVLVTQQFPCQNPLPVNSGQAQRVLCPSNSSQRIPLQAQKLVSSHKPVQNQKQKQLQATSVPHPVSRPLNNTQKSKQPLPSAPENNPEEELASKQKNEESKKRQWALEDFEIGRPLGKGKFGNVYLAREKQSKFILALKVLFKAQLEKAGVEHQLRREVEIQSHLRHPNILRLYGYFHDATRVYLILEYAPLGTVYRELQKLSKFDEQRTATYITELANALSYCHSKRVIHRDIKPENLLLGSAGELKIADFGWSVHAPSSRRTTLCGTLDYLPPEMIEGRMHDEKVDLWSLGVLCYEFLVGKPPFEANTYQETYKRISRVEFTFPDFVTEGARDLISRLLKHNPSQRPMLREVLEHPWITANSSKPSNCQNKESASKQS
Experimental: as §1, §2

MAP4K4 = MAP4K4 (Homo sapiens, UniProt O95819); experiment: Nanosyn in vitro kinase profiling: MAP4K4; format: biochemical; details: for inhibition at 1 µM: compound at 1 μM
Experimental: as §1, §2

[1] = target: 2YF/3wt + NRG Ba/F3 cells (HER2YF/HER3wt) (Homo sapiens, UniProt P04626, Y1005F/Y1023F/Y1112F/Y1127F/Y1139F/Y1196F/Y1221F/Y1222F/Y1248F, cells depend on it); experiment: Ba/F3 proliferation assay, 2YF/3wt + NRG; format: cell-based
Procedure, shortened: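 Ba/F3 cells stably expressing HER3 and HER2 with 9 C-terminal Tyr→Phe mutations, selected for NRG dependence after IL-3 withdrawal. Cells were given DMSO or compound plus NRG (50 ng/mL final); proliferation normalized to DMSO, fit by log(inhibitor) vs response with variable slope.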

Chain of FGFR1 (P11362 22-822): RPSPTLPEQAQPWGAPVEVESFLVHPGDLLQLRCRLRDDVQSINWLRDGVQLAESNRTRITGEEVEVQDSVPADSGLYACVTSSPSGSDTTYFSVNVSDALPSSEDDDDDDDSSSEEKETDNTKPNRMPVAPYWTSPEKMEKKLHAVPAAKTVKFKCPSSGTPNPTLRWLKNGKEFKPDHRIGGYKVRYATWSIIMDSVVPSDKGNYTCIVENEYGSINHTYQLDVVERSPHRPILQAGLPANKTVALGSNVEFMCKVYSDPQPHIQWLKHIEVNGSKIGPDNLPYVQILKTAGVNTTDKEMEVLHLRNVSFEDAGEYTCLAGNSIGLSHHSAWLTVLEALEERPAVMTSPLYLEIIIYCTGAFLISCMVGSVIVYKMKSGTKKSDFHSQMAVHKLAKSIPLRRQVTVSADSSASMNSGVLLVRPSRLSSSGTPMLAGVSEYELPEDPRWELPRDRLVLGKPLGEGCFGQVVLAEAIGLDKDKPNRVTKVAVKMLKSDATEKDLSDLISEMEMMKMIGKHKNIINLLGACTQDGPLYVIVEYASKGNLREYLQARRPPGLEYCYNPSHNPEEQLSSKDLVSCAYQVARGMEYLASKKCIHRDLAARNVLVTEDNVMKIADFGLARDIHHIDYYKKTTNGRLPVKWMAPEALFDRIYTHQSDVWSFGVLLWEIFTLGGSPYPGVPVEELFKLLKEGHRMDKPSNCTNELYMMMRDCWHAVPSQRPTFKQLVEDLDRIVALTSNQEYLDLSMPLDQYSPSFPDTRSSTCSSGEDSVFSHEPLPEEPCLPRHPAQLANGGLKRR
Chain of MAP4K4 (O95819 whole entry): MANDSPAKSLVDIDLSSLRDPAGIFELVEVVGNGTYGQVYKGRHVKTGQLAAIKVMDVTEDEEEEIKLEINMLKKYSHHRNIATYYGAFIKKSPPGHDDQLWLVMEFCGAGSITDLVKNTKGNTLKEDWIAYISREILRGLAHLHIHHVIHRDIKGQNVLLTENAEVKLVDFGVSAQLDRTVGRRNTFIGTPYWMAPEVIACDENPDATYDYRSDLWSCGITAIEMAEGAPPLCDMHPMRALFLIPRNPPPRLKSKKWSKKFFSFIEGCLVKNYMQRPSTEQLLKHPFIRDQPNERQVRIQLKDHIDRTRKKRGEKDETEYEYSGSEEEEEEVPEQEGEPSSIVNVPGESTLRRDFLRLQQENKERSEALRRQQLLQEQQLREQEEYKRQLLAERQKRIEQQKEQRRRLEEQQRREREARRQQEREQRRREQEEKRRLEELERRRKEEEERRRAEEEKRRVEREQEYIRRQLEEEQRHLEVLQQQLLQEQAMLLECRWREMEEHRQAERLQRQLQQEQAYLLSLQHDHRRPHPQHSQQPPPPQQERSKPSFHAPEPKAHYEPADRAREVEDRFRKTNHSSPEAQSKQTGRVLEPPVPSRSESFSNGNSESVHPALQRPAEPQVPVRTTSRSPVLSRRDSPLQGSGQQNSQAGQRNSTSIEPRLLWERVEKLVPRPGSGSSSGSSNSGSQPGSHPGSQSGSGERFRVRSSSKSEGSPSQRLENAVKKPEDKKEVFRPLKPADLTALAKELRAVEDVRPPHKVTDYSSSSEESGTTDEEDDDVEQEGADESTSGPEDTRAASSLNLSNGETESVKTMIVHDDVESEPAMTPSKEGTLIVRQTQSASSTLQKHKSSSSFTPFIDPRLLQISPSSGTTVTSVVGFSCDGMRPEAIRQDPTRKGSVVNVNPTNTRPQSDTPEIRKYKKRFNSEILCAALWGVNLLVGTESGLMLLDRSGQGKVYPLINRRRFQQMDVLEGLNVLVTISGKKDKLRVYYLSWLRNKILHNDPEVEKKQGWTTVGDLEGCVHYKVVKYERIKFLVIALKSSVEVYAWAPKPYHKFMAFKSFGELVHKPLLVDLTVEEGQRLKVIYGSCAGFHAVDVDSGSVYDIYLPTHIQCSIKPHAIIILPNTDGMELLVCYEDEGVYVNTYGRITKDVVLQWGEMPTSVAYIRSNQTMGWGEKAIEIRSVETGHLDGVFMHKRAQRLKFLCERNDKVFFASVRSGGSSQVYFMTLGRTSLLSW
Chain of EPH-A2 (P29317 24-976, species assumed): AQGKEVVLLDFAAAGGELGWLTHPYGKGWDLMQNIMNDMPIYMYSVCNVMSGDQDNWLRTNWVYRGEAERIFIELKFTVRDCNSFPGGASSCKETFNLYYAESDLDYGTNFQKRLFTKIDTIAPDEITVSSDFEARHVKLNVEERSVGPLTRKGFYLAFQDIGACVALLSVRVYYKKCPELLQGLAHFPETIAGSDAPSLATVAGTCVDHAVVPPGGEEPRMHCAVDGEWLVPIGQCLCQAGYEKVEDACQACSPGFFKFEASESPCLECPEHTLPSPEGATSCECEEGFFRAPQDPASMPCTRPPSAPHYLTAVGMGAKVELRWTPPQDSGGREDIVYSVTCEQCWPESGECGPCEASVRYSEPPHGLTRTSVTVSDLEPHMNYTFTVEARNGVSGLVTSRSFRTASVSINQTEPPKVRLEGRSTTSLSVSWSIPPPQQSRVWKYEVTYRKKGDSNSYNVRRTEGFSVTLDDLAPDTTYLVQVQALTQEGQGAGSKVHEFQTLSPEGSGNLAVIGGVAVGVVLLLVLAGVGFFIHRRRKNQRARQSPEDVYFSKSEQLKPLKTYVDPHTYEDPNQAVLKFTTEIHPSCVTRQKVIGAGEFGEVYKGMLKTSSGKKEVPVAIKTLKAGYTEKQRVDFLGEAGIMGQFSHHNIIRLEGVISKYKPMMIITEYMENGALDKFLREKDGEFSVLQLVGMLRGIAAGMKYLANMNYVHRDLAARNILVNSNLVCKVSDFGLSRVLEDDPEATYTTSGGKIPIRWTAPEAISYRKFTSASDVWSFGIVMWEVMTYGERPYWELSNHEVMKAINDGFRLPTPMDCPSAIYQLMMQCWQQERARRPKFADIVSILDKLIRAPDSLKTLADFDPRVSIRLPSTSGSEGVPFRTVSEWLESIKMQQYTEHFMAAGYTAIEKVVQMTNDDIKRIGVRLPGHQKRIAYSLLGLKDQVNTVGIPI
Chain of MET (P08581 25-1390): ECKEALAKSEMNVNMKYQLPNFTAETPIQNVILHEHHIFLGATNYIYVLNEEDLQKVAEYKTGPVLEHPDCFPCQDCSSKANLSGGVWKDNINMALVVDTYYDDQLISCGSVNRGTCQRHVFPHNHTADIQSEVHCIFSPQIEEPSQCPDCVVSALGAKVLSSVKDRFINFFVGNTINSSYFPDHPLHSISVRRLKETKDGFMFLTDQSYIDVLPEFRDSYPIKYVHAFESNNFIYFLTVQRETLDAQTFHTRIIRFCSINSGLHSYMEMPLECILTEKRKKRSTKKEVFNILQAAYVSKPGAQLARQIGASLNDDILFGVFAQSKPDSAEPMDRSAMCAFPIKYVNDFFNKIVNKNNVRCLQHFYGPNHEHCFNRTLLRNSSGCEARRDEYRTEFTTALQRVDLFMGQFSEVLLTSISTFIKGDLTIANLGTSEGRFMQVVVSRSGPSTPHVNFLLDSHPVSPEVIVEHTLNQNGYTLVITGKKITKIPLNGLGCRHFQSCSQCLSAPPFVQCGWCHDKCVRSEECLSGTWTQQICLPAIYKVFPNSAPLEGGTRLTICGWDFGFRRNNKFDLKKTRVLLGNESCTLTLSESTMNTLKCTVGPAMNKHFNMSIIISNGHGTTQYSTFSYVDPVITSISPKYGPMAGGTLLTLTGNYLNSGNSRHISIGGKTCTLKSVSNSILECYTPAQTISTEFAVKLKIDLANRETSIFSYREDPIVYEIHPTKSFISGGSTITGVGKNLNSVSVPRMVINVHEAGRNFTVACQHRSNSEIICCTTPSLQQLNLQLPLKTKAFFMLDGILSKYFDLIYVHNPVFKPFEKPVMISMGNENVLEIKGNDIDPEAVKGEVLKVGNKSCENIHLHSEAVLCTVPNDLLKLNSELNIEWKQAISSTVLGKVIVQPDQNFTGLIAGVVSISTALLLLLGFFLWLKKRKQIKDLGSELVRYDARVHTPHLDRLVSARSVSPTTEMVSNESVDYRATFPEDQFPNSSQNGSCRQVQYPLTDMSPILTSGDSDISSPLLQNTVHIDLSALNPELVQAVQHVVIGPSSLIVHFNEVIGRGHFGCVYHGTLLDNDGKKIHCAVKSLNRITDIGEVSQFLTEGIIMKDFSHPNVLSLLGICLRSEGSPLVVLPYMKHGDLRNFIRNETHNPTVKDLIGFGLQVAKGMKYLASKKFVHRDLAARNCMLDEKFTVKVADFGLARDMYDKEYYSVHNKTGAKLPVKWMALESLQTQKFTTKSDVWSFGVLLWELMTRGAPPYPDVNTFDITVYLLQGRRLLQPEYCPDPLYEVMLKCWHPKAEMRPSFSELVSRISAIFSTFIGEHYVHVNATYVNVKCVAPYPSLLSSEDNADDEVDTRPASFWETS
Chain of MAPKAPK-2 (P49137 whole entry, species assumed): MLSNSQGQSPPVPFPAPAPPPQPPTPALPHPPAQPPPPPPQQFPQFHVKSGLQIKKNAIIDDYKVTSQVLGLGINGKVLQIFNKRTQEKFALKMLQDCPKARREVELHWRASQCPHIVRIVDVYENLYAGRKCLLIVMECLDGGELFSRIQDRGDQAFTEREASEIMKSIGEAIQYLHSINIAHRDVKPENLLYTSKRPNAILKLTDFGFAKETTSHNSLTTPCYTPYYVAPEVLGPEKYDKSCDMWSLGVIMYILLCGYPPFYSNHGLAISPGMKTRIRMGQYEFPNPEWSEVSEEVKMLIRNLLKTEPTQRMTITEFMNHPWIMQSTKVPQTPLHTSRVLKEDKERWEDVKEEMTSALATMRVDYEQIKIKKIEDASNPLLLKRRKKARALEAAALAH

Row | Compound | inhibition at 0.1 µM (FGFR1; compound at 100 nM) [%] | inhibition at 1 µM (FGFR1) [%] | inhibition at 0.1 µM (MET; compound at 100 nM) [%] | inhibition at 1 µM (MET) [%] | inhibition at 0.1 µM (FLT-3; compound at 100 nM) [%] | inhibition at 1 µM (FLT-3) [%] | inhibition at 0.1 µM (PYK2; compound at 100 nM) [%] | inhibition at 1 µM (PYK2) [%] | inhibition at 0.1 µM (EPH-A2; compound at 100 nM) [%] | inhibition at 1 µM (EPH-A2) [%] | inhibition at 0.1 µM (MAPKAPK-2; compound at 100 nM) [%] | inhibition at 1 µM (MAPKAPK-2) [%] | inhibition at 0.1 µM (AURORA-A; compound at 100 nM) [%] | inhibition at 1 µM (AURORA-A) [%] | inhibition at 0.1 µM (MAP4K4; compound at 100 nM) [%] | inhibition at 1 µM (MAP4K4) [%] | GI50 ([1]; Table 4; ± S.D., n = 3; 48 h Cell Titer Glo; read-out: IC50, 2YF/3wt + NRG) [nM] | GI50 ([1]; read-out: IC50, 2YF/3wt + NRG; Table 4; ± S.D., n = 3; 48 h Cell Titer Glo) [nM]
1 | COc1ccc(-c2ccco2)cc1Nc1ncnc2[nH]nc(-c3ccco3)c12 [compound 2, 3-(furan-2-yl)-N-(5-(furan-2-yl)-2-methoxyphenyl)-1H-pyrazolo[3,4-d]pyrimidin-4-amine] | 48.3 | 86.3 | 2.04 | 10.1 | 60 | 89.4 | 3.81 | 20.2 | 2.42 | 21 | 0.12 | 0.575 | 9.95 | 47.2 | 36.5 | 78.7 | – | –
2 | COc1ccc(-c2ccoc2)cc1Nc1ncnc2[nH]cc(-c3cc[nH]n3)c12 [compound 3, N-(5-(furan-3-yl)-2-methoxyphenyl)-5-(1H-pyrazol-3-yl)-7H-pyrrolo[2,3-d]pyrimidin-4-amine] | – | 93 | – | 16 | – | 78 | – | 41 | – | 28 | – | -6 | – | 31 | – | 100 | 6.8 ± 0.2 | –
3 | CS(=O)(=O)CCNCc1ccc(-c2ccc3ncnc(Nc4ccc(OCc5cccc(F)c5)c(Cl)c4)c3c2)o1 [lapatinib] | – | – | – | – | – | – | – | – | – | – | – | – | – | – | – | – | – | 63.6 ± 12.5
